Experimental data taken from paper PMC6925260 (Nature Communications, 2019).
Numbering of substitutions follows the chain as printed. Read-outs that look alike come from different tables or passages of the source.

Key:
[1] = target: PPARγ LBD, deletion of helix 12 / NCoR peptide; assay: Fluorescence anisotropy, NCoR peptide to helix 12 deleted (DH12) PPARγ LBD; format: binding; conditions: read-out: NCoR dissociation constant average, DH12; Supp. Fig. 11
Experimental: (§1) These samples were then plated as usual.

[2] = target: T1, K347A PPARγ LBD / NCoR peptide (Homo sapiens, UniProt P37231, K347A); assay: Fluorescence anisotropy, NCoR peptide to K347A PPARγ LBD; format: binding; conditions: read-out: NCoR dissociation constant average, K347A; Supp. Fig. 11
T1 construct: 6× His tag with TEV recognition site (N, cleaved yes); made in house; host or cells: E. coli BL21 (DE3) gold
Experimental: as §1

[3] = target: T2, PPARγ LBD (wt) / NCoR CoRNR box peptide (Homo sapiens, UniProt P37231); assay: Fluorescence anisotropy, NCoR peptide to wt PPARγ LBD (alone or ligand bound); format: binding
T2 construct: 6× His tag with TEV recognition site (N, cleaved yes); made in house; host or cells: E. coli BL21 (DE3) gold
T2 sequence (P37231 230-505): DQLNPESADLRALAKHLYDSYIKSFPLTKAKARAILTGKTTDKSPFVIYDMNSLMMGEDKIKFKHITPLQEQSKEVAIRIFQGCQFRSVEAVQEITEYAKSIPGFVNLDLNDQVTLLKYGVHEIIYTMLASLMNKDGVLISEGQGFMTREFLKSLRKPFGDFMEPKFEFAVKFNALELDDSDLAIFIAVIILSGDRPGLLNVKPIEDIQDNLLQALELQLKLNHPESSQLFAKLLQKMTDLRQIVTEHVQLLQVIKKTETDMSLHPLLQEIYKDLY
Experimental: as §1

[4] = target: T3, PPARγ LBD (wt) / SMRT CoRNR box peptide (Homo sapiens, UniProt P37231); assay: Fluorescence anisotropy, SMRT peptide to wt PPARγ LBD (alone or ligand bound); format: binding
T3 construct: 6× His tag with TEV recognition site (N, cleaved yes); made in house; host or cells: E. coli BL21 (DE3) gold
T3 sequence (P37231 230-505): T2 sequence (P37231 230-505)
Experimental: as §1

[5] = target: T4, PPARγ LBD (wt) / MED1 LxxLL peptide (Homo sapiens, UniProt P37231); assay: Fluorescence anisotropy, MED1 peptide to wt PPARγ LBD (alone or ligand bound); format: binding
T4 construct: 6× His tag with TEV recognition site (N, cleaved yes); made in house; host or cells: E. coli BL21 (DE3) gold
T4 sequence (P37231 230-505): T2 sequence (P37231 230-505)
Experimental: as §1

[6] = target: T5, PPARγC313A,Q322C-BTFA LBD / NCoR peptide (Homo sapiens, UniProt P37231, C313A/Q322C); assay: Fluorescence anisotropy, NCoR peptide to PPARγC313A,Q322C-BTFA LBD; format: binding; conditions: Supp. Table 2
T5 construct: 6× His tag with TEV recognition site (N, cleaved yes); made in house; host or cells: E. coli BL21 (DE3) gold
T5 sequence (P37231 230-505 C313A/Q322C): T2 sequence (P37231 230-505) with C84A, Q93C
Experimental: as §1

[7] = target: T6, N340A PPARγ LBD / NCoR peptide (Homo sapiens, UniProt P37231, N340A); assay: Fluorescence anisotropy, NCoR peptide to N340A PPARγ LBD; format: binding; conditions: read-out: NCoR dissociation constant average, N340A; Supp. Fig. 11
T6 construct: 6× His tag with TEV recognition site (N, cleaved yes); made in house; host or cells: E. coli BL21 (DE3) gold
Experimental: as §1

[8] = test system: PPARγ; conditions: Supp. Table 9 summary; comparator apo/vehicle; ref 1,4 (supplement); cited from earlier work
[9] = target: PPARγ LBD (wt) / CBP peptide (Homo sapiens, UniProt P37231); assay: Fluorescence anisotropy, CBP peptide to wt PPARγ LBD
[10] = target: T7, K329A PPARγ LBD / NCoR peptide (Homo sapiens, UniProt P37231, K329A); assay: Fluorescence anisotropy, NCoR peptide to K329A PPARγ LBD; format: binding; conditions: read-out: NCoR dissociation constant average, K329A; Supp. Fig. 11
T7 construct: 6× His tag with TEV recognition site (N, cleaved yes); made in house; host or cells: E. coli BL21 (DE3) gold
Experimental: as §1

[11] = target: K347A PPARg LBD; assay: Supplementary Figure 11: fluorescence anisotropy dissociation constants, K347A (peptide not given); format: binding
[12] = target: T8, N340A PPARγ LBD / SMRT peptide (Homo sapiens, UniProt P37231, N340A); assay: Fluorescence anisotropy, SMRT peptide to N340A PPARγ LBD; format: binding
T8 construct: 6× His tag with TEV recognition site (N, cleaved yes); made in house; host or cells: E. coli BL21 (DE3) gold
T8 sequence (P37231 230-505 N340A): T2 sequence (P37231 230-505) with N111A
Experimental: as §1

[13] = target: T9, K347A PPARγ LBD / SMRT peptide (Homo sapiens, UniProt P37231, K347A); assay: Fluorescence anisotropy, SMRT peptide to K347A PPARγ LBD; format: binding
T9 construct: 6× His tag with TEV recognition site (N, cleaved yes); made in house; host or cells: E. coli BL21 (DE3) gold
T9 sequence (P37231 230-505 K347A): T2 sequence (P37231 230-505) with K118A
Experimental: as §1

[14] = target: wt PPARg LBD; assay: Supplementary Figure 11: fluorescence anisotropy dissociation constants, wt PPARγ LBD (peptide not given); format: binding
[15] = data set 2 28 18 FP inverse agonism, read-out: dissociation constant
[16] = data set FP K329A K347A 3 20 18, read-out: dissociation constant

In the case of `O=C(Nc1ccccc1)c1cc([N+](=O)[O-])ccc1Cl` [GW9662], the Kd [1] is reported as 93 nM, the Kd [2] is reported as 590 nM and the “NCoR Kd mean difference ±SE, Apo vs ligand” value ([3]; Supp. Table 3, wt, one-way ANOVA, Dunnett's, 11 df) is reported as 150 ±39. The “effect on corepressor CoRNR box peptide affinity” value ([3]; Supp. Table 9 summary, NCoR and SMRT, comparator apo) was “é”, the Kd ([3]; read-out: NCoR Kd, wt, Supp. Table 2, wt values not from the same experiment as PPARγC313A,Q322C-BTFA (first wt column)) was 273 nM and the Kd ([3]; read-out: NCoR Kd, WT, ligand-bound, run 1) was 219 nM. The Kd ([3]; read-out: NCoR Kd, WT, ligand-bound, run 2) was 157 nM, the Kd ([3]; read-out: NCoR WT Kd, Supp. Table 1, wt PPARγ LBD, FITC peptide 50 nM, fluorescence anisotropy, pH 7.4, 2 h room temperature, average of two technical replicates) was 420 nM and the Kd ([3]; read-out: NCoR dissociation constant average, wt, Supp. Fig. 11) was 255 nM. The “effect on affinity/recruitment of NCoR CoRNR peptide” value ([3]; versus apo) was “increase affinity”, the Kd ([4]; Supp. Fig. 12, read-out: SMRT dissociation constant average, wt) was 634 nM and the “SMRT Kd mean difference ±SE, Apo vs ligand” value ([4]; Supp. Table 4, wt, 9 df) was 923 ±178. For the same compound, the Kd ([4]; run SMRT FP 4 5 18, read-out: SMRT dissociation constant, WT) was 445 nM, the Kd ([4]; run SMRT FP 4 6 18, read-out: SMRT dissociation constant, WT) was 482 nM and the Kd ([4]; run SMRT FP 4 10 18, read-out: SMRT dissociation constant, WT) was 976 nM. For the same compound, the “effect on affinity/recruitment of SMRT CoRNR peptide” value ([4]; versus apo) was “increase affinity”, the “effect on coactivator LxxLL box peptide affinity” value ([5]; Supp. Table 9 summary, comparator apo) was “no effect” and the Kd ([5]; read-out: MED1 Kd, wt, Supp. Table 2, wt values not from the same experiment as PPARγC313A,Q322C-BTFA (first wt column)) was 4220 nM. The Kd ([5]; read-out: MED1 WT Kd, Supp. Table 1, wt PPARγ LBD, FITC peptide 50 nM, fluorescence anisotropy, pH 7.4, 2 h room temperature) was 4900 nM, the “NCoR fold change (labeled/wt), PPARγC313A,Q322C-BTFA” value [6] was 1.3 and the Kd ([6]; read-out: NCoR Kd, PPARγC313A,Q322C-BTFA, covalent ligands T0070907, GW9662 expected to be apo-like) was 348 nM. For the same compound, the Kd [7] was 485 nM, the “effect on reporter expression in cells” value [8] was “no effect” and the Kd ([9]; read-out: CBP Kd, ligand-bound, run 1) was 4700 nM. The Kd ([9]; read-out: CBP Kd, ligand-bound, run 2) was 3350 nM, the Kd [10] was 1820 nM and the Kd [11, 15] was 692 nM. The Kd [11, 16] was 488 nM, the “SMRT Kd, wt vs N340A mean difference ± SE” value ([12]; Supp. Fig. 12) was -323 ±631 and the Kd ([12]; Supp. Fig. 12, read-out: SMRT dissociation constant average, N340A) was 957 nM. It also gave a Kd ([12]; run SMRT FP 4 5 18, read-out: SMRT dissociation constant, N340A) of 855 nM, a Kd ([12]; run SMRT FP 4 6 18, read-out: SMRT dissociation constant, N340A) of 1200 nM and a Kd ([12]; run SMRT FP 4 10 18, read-out: SMRT dissociation constant, N340A) of 811 nM. The “SMRT Kd, wt vs K347A mean difference ± SE” value ([13]; Supp. Fig. 12) was 64 ± 631, the Kd ([13]; Supp. Fig. 12, read-out: SMRT dissociation constant average, K347A) was 570 nM and the Kd ([13]; run SMRT FP 4 5 18, read-out: SMRT dissociation constant, K347A) was 527 nM. It also gave a Kd ([13]; run SMRT FP 4 6 18, read-out: SMRT dissociation constant, K347A) of 638 nM, a Kd ([13]; run SMRT FP 4 10 18, read-out: SMRT dissociation constant, K347A) of 546 nM and a Kd ([14]; average of the listed data sets, read-out: dissociation constant, Average wt values) of 255 nM. The Kd [14, 15] was 242 nM, the Kd ([14]; data set FP 3 15 18 Inverse agonism part 2, read-out: dissociation constant) was 269 nM and the Kd [14, 16] was 254 nM.
